{"source": "patent US6730683B2", "about": "“Compounds of heteroaryl substituted imidazole, their pharmaceutical compositions and uses” (SmithKline Beecham Corporation, priority 1997, dated 2004)", "key": {"[1]": {"test_system": "human PGHS-2 protein expression in LPS stimulated human monocytes", "experiment": "Prostoglandin Endoperoxide Synthase-2 (PGHS-2) Assay", "assay_type": "cell-based", "conditions": "for LPS induced PGHS-2 protein expression (inactive in this assay): up to 10 uM; for inhibited LPS induced PGHS-2 protein expression (active in this assay): rank order potency similar to that for inhibiting cytokine production", "protocol": "The following assay describes a method for determining the inhibitory effects of compounds of Formula (I) on human PGHS-2 protein expression in LPS stimulated human monocytes.\nHuman peripheral blood monocytes were isolated from buffy coats by centrifugation through Ficoll and Percoll gradients. Cells were seeded at 2×10^6/well in 24 well plates and allowed to adhere for 1 hour in RPMI supplemented with 1% human AB serum, 20 mM L-glutamine, Penicillin-Streptomycin and 10 mM HEPES. Compounds were added at various concentrations and incubated at 37° C. for 10 minutes. LPS was added at 50 ng/well (to induce enzyme expression) and incubated overnight at 37° C. The supernatant was removed and cells washed once in cold PBS. The cells were lysed in 100 μl of cold lysis buffer(50 mM Tris/HCl pH 7.5, 150 mM NaCl, 1% NP40, 0.5% sodium deoxycholate, 0.1% SDS, 300 ug/ml DNAse, 0.1% TRITON X-100, 1 mM PMSF, 1 mM leupeptin, 1 mM pepstatin). The lysate was centrifuged (10,000×g for 10 min. at 4° C.) to remove debris and the soluble fraction was subjected to SDS PAGE. analysis (12% gel). Protein separated on the gel were transferred onto nitrocellulose membrane by electrophoretic means for 2 hours at 60 volts. The membrane was pretreated for one hour in PBS/0.1% Tween 20 with 5% non-fat dry milk. After washing 3 times in PBS/Tween buffer, the membrane was incubated with a 1:2000 dilution of a monospecific antiserum to PGHS-2 or a 1:1000 dilution of an antiserum to PGHS-1 in PBS/Tween with 1% BSA for one hour with continuous shaking. The membrane was washed 3× in PBS/Tween and then incubated with a 1:3000 dilution of horseradish peroxidase conjugated donkey antiserum to rabbit Ig (Amersham) in PBS/Tween with 1% BSA for one hour with continuous shaking. The membrane was then washed 3× in PBS/Tween and the ECL immunodetection system (Amersham) was used to detect the level of expression of prostaglandin endoperoxide synthases-2."}, "[2]": {"test_system": "pro-inflammatory proteins including, IL-6, IL-8, GM-CSF and COX-2", "conditions": "cited from earlier work"}}, "data": [{"molecule": "O=C1CCN(c2ccccc2)N1", "note": "[phenidone]", "values": [{"measurement": "LPS induced PGHS-2 protein expression (inactive in this assay)", "setting": "[1]", "result": "inactive"}]}, {"molecule": "Fc1ccc(-c2nc3n(c2-c2ccncc2)CCS3)cc1", "note": "[6-(4-Fluoro-phenyl)-2,3-dihydro-5-(4-pyridinyl)imidazo[2,1-b]thiazole]", "values": [{"measurement": "inhibited LPS induced PGHS-2 protein expression (active in this assay)", "setting": "[1]", "result": "active"}]}, {"molecule": "Fc1ccc(-c2nc3n(c2-c2ccncc2)CCS3)cc1", "note": "[SK&F 86002]", "values": [{"measurement": "synthesis of pro-inflammatory proteins including IL-6, IL-8, GM-CSF and COX-2", "setting": "[2]", "result": "decrease"}]}, {"molecule": "C[C@@H]1C[C@H]2[C@@H]3CCC4=CC(=O)C=C[C@]4(C)[C@@]3(F)[C@@H](O)C[C@]2(C)[C@@]1(O)C(=O)CO", "note": "[Dexamethasone]", "values": [{"measurement": "inhibited LPS induced PGHS-2 protein expression (active in this assay)", "setting": "[1]", "result": "active"}]}, {"molecule": "COc1ccc(C2CNC(=O)C2)cc1OC1CCCC1", "note": "(stereo not shown) [Rolipram]", "values": [{"measurement": "LPS induced PGHS-2 protein expression (inactive in this assay)", "setting": "[1]", "result": "inactive"}]}, {"molecule": "C[S+]([O-])c1ccc(-c2nc(-c3ccncc3)c(-c3ccc(F)cc3)[nH]2)cc1", "note": "(stereo not shown) [SB 203580]", "values": [{"measurement": "synthesis of pro-inflammatory proteins including IL-6, IL-8, GM-CSF and COX-2", "setting": "[2]", "result": "decrease"}]}, {"molecule": "C[S+]([O-])c1ccc(-c2nc3n(c2-c2ccncc2)CCC3)cc1", "note": "(stereo not shown) [2-(4-Methylsulfinylphenyl)-3-(4-pyridyl)-6,7-dihydro-(5H)-pyrrolo[1,2-a]imidazole]", "values": [{"measurement": "LPS induced PGHS-2 protein expression (inactive in this assay)", "setting": "[1]", "result": "inactive"}]}]}
